Numbering of substitutions follows the chain as printed.
Columns and labels:
[1] = target: T1, TPα^S329A (Homo sapiens, UniProt P21731, S329A); test: [3H]SQ29,548 radioligand binding, Scatchard analysis, HEK.TPα^S329A
T1 construct: expressed in transfected cells
T1 sequence (P21731 1-343 S329A): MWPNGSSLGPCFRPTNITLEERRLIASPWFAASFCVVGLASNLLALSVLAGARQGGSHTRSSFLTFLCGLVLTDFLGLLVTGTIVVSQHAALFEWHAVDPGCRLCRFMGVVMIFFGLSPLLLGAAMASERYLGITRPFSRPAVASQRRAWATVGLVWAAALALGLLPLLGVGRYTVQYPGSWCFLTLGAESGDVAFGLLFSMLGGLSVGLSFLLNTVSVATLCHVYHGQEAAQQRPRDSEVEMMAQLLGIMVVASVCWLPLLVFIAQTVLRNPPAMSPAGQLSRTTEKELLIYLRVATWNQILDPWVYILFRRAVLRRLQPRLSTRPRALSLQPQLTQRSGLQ
Method: Cells were harvested by centrifugation at 500×g at 4 °C for 5 min and washed three times with ice-cold Ca^2+/Mg^2+-free phosphate-buffered saline (PBS). TP radioligand binding assays were carried out at 30 °C for 30 min in 100 μl reactions in the presence of 0–40 nM [^3H] […] Protein determinations were carried out using the Bradford assay.
Radioligand binding and Scatchard analysis data were analysed using GraphPad Prisim V4.0 programme (GraphPad Software Inc., San Diego CA, USA). Statistical analyses were carried out using the unpaired Student's t test using the Statworks Analysis Package. p-values ≤ 0.01 indicated statistically significant differences.

[2] = target: T2, TPβ (Homo sapiens, UniProt P21731); test: Intracellular calcium mobilization, HEK.TPβ cells; type: cell-based
T2 construct: expressed in transfected cells
T2 sequence (P21731 1-407 isoform P21731-2): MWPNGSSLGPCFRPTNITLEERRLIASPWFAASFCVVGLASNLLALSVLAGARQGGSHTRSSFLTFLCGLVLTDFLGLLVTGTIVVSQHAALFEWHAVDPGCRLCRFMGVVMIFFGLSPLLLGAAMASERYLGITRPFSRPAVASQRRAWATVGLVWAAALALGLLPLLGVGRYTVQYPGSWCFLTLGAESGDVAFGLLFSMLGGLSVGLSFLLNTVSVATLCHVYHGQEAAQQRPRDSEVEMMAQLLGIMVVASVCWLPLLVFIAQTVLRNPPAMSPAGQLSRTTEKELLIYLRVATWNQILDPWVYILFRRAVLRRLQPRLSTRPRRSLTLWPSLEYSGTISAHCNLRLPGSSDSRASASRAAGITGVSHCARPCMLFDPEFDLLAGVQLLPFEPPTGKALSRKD
Method: (§1) Measurement of intracellular calcium mobilization ([Ca^2+]i) in FURA2/AM preloaded HEK 293 cell lines (2 × 10^6 cells/dish), each transiently co-transfected with pADVA (10 μg), and pCMV:Gαq (25 μg), was carried out as previously described. To investigate the effect of GRK2/βARK1 on TP-mediated [Ca^2+]i mobilization, HEK.TPα or HEK.TPβ cells (2 × 10^6 cells/dish) were co-transfected with pADVA (10 μg), pCMV:Gαq (25 μg) along with pRK5:βARK1^495–689 (25 μg), encoding a dominant negative form of GRK2/βARK1[39]. Approximately 48 h post-transfection, cells were harvested by scraping, washed twice in ice-cold PBS and resuspended in HBSSHB (modified Ca^2+/Mg^2+-free Hank's buffered salt solution, containing […], pH 7.67, 0.1% bovine serum albumin (BSA)) buffer at 10^7 cells/ml and incubated in the dark with 5 μM FURA2/AM for 45 min at 37 °C. Cells were collected by centrifugation (900×g, 5 min), washed once in an equal volume of HBSSHB, and were finally resuspended in HBSSHB buffer at 10^7 cells/ml and kept at room temperature in the dark for 40 min. For each measurement of [Ca^2+]i mobilization, aliquots of cells were diluted to 0.825 × 10^6 cells/ml in HBSSHB, 1 mM CaCl2 and FURA2 fluorescence was recorded (2 ml aliquots of cells) at 37^ °C with gentle stirring with a Perkin Elmer-Cetus LS50-B spectrofluorometer at excitation wavelengths of 340 nm and 380 nm and emission wavelength of 510 nm, respectively.
(§2) Cells were stimulated with the TP agonist U46619 (1 μM) and changes in [Ca^2+]i mobilization were monitored as a function of time. To assess agonist-mediated homologous desensitization, cells (0.825 × 10^6 cells/ml; 2 ml per assay) were stimulated with 1 μM U46619 (Primary stimulation) or, as a control, with the vehicle for 4 min; thereafter, cells were collected by centrifugation (900×g, 5 min); were washed twice in 2 ml HBSSHB, 1 mM CaCl2; and finally resuspended in 2 ml HBSSHB,1 mM CaCl2 and were left to recover over various time intervals (ranging from 0 to 60 min); thereafter, cells re-stimulated with 1 μM U46619 (Secondary stimulation) and changes in [Ca^2+]i mobilization were monitored as a function of time. To assess the role of protein kinase (PK) A, PKC or PKG on U46619-mediated desensitization of TPα signalling, cells were pre-incubated with the PKA inhibitor H-89 (10 μM), the PKC inhibitor GF 109203X (50 nM) or the PKG inhibitor KT 5823 (50 nM), for 15 min and respective kinase inhibitors were maintained throughout the primary/secondary U46619-stimulations and during the washes.
The vehicle had no effect on U46619-mediated [Ca^2+]i mobilization. Calibration of the signal was performed in each sample by adding 0.2% Triton X-100 to obtain the maximal fluorescence ratio (Rmax) and then 1 mM EGTA to obtain the minimal fluorescence ratio (Rmin). The ratio of the fluorescence at 340 nm to that at 380 nm is a measure of [Ca^2+]i, which assumes a Kd of 225 nM Ca^2+ for FURA2/AM. The results presented in the figures are representative data from at least three or four independent experiments and are plotted as changes in Ca^2+i mobilized (Δ[Ca^2+]i (nM)) as a function of time (s) upon ligand stimulation. Changes in [Ca^2+]i mobilization were determined by measuring peak rises in [Ca^2+]i mobilized (Δ[Ca^2+]i) and were calculated as mean changes in Δ[Ca^2+]i ± S.E.M. (nM).

[3] = target: T3, TPα^S331,T337,S340A (Homo sapiens, UniProt P21731, S331A/S340A/T337A); test: Intracellular calcium mobilization, HEK.TP^S331,T337,S340A cells; type: cell-based; details: for Δ[Ca2+]i, U46619-induced: HEK.TP^S331,T337,S340A
T3 construct: expressed in transfected cells
T3 sequence (P21731 1-343 S331A/T337A/S340A): T1 sequence (P21731 1-343 S329A) with A329S, S331A, T337A, S340A
Method: as §1, with “Cells were collected by centrifugation (900×g, 5 min), washed once in an equal volume of HBSSHB, and were finally resuspended in HBSSHB buffer at 10^7 cells/ml and kept at room temperature in the dark for 40 min.” left out
as §2, with “To assess the role of protein kinase (PK) A, PKC or PKG on U46619-mediated desensitization of TPα signalling, cells were pre-incubated with the PKA inhibitor H-89 (10 μM), the PKC inhibitor GF 109203X (50 nM) or the PKG inhibitor KT 5823 (50 nM), for 15 min and respective kinase inhibitors were maintained throughout the primary/secondary U46619-stimulations and during the washes.” left out

| Bmax (pmol/mg protein ± S.E.M.) [1] [pmol/mg protein] | Δ[Ca2+]i, U46619-induced ([2]; + GRK^DN, primary 1 μM U46619) [nM] | Δ[Ca2+]i, U46619-induced ([2]; + GRK^DN, secondary 1 μM U46619 at 15 min) [nM] | Δ[Ca2+]i, U46619-induced ([2]; − GRK^DN, primary 1 μM U46619) [nM] | Δ[Ca2+]i, U46619-induced ([2]; − GRK^DN, secondary 1 μM U46619 at 15 min) [nM] | Δ[Ca2+]i, U46619-induced ([3]; primary 1 μM U46619 4 min) [nM] | Δ[Ca2+]i, U46619-induced ([3]; secondary 1 μM U46619 at 15 min) [nM] | secondary U46619 [Ca2+]i response relative to primary response ([3]; TPα^S331,T337,S340A) [%] | Structure (SMILES) |
| --- | --- | --- | --- | --- | --- | --- | --- | --- |
| 4.43 ± 0.04 |  |  |  |  |  |  |  | O=C(O)CCC/C=C\C[C@@H]1[C@H](CNNC(=O)Nc2ccccc2)[C@H]2CC[C@@H]1O2 [SQ29,548] |
|  | 195 ± 11 | 210 ± 12 | 180 ± 6.7 | 0 | 195 ± 12 | 67 ± 8.2 | ~34 | CCCCC[C@H](O)/C=C/[C@@H]1[C@@H](C/C=C\CCCC(=O)O)[C@H]2CO[C@@H]1C2 [U46619] |

Reference: publication PMC2680961, “Homologous desensitization of signalling by the alpha (α) isoform of the human thromboxane A2 receptor: A specific role for nitric oxide signalling” (Biochimica et Biophysica Acta, 2007)
